Article PMC6980330 (Steroids, 2019)

Target: T1, vitamin D receptor (VDR) (Homo sapiens, UniProt P11473)
T1 sequence (P11473 118-427 limits assumed): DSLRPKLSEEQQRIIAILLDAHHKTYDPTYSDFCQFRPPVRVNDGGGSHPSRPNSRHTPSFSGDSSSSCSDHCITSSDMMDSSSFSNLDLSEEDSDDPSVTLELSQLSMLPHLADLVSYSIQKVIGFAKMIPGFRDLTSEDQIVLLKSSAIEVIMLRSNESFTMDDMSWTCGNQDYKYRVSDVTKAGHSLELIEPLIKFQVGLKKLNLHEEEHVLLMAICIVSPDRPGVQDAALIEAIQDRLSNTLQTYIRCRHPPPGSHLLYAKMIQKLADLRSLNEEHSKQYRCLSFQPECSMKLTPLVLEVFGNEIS
Assay type: binding

Compound C=C1CC[C@H](O)C/C1=C/C=C1\CCC[C@]2(C)[C@@H]([C@H](C)CC(=O)O)CC[C@@H]12 [compound 13, calcioic acid] has an IC50 of 71.2 µM.
